Test results: patent US20160177395A1, “BIOMARKERS FOR THE PREDICTION OF RENAL INJURY” (priority 2007, published 2016)
Several values for one entry are separate records, joined by “and”; a condition that tells them apart may be missing. Equal entries are not always repeated. Entries after “also recorded” stand apart in the source; their conditions may differ.

Columns and labels:
[1] = tested on: Sprague-Dawley Crl:CD(SD) rats; experiment: Rat toxicity study, single, 5-day and 28-day treatment (clinical observation, clinical pathology, autopsy, organ weights, histopathology); conditions: for Organ weight: compared with controls;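 for all read-outs here: control rats received saline intraperitoneally, and the organs examined were adrenals, brain, kidneys, liver, spleen and thymus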
Protocol: Control animals were treated intraperitoneal with saline.
Randomization and group allocation: prior to treatment, the animals were assigned to the experimental groups based on their body weight. Mean body weight of each group at randomization was not deviate±20% of the mean population weight. Males and females were randomized separately. For the randomization, a computer program was used.
The day before autopsy, urinalysis was performed and blood samples were taken for hematology and clinical chemistry examinations.
On the day of autopsy the animals were anaesthetized with isoflurane, blood was collected for PBMC isolation then subjected to autopsy. Tissues and organs (adrenals, brain, kidneys, liver, spleen and thymus) were weighed and subjected to gross pathological and histopathological examinations.

[2] = tested on: kidney tissues of treated or untreated rats; experiment: Real-time qRT-PCR of marker transcripts in kidney tissue panel, discovery stage (Table 22); format: in vivo, rat; set-up: AI502869_DB71_seg0 normalized Real Time PCR expression: unit not given beside the values; conditions: for normalized Real Time PCR MMU09507_DB81_seg15 / normalized Real Time PCR MUSCYCG1R_DB81_seg19-20 / normalized Real Time PCR RATRAB13X_DB81_seg15-17 / normalized Real Time PCR RATRAB13X_DB81_seg22 / normalized Real Time PCR W33294_DB81_seg23 / normalized Real Time PCR W33294_DB81_seg44: kidney; for normalized Real Time PCR MUSCYCG1R DB81 seg19-20: test concentration or dose not given here; for normalized Real Time PCR RATRAB13X DB81 seg15-17: test concentration or dose not given here; for normalized Real Time PCR RATRAB13X DB81 seg22: test concentration or dose not given here; for normalized Real Time PCR W33294 DB81 seg23: test concentration or dose not given here; for normalized Real Time PCR W33294 DB81 seg44: test concentration or dose not given here
Method in brief: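 Rat kidney RNA, DNase-treated until PCR-negative, reverse transcribed with SuperscriptII; SYBR Green real-time PCR, 40 cycles, undetected samples set to Ct 41. Relative quantity from efficiency^-Ct (standard-curve efficiency), normalized to the geometric mean of four median-scaled housekeeping genes, then multiplied by a constant factor.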

[3] = 28-day treatment, male and female rats
[4] = female rats, day5, listed as Gent
[5] = rat kidney, day1, individual animals

Gentamycin
Autopsy findings ([1]; 5-day treatment): No effect | Body weight gain ([1]; 5-day treatment): Body weight gain was decreased in females | Clinical pathology ([1]; 5-day treatment): elevated urea nitrogen levels found in females; also recorded: ♀: ↑↑BUN | Histopathology / renal damage ([1]; 5-day treatment): No nephrotoxicity was observed; also recorded: No renal damage was found at histopathological examination | Organ weight ([1]; 5-day treatment): No effect | Body weight and body weight gain ([1]; 28-day treatment): affected body weight gain of animals in both sexes; also recorded: Effect on body weight and body weight gain was seen | Histopathology / nephrotoxicity ([1]; 28-day treatment): Signs of nephrotoxicity occurred in all animals of both sexes; also recorded: nephrotoxic effect of the test item was confirmed by histopathology; also recorded: basophilia in the cortex | Decreasing order of nephrotoxicity at histopathological examination ([1]; 28-day treatment, females): Cisplatin, Cadmium chloride, Gentamycin, Doxorubicin and Tobramycin in females | Autopsy findings [1, 3]: enlarged and discolored kidneys were observed in males; also recorded: Alterations were found in the kidneys; also recorded: ♂♀: ↑↑, pale | Organ weight [1, 3]: Kidney weight increased in both sexes and Increased weights of kidneys in males and Higher weights of kidneys in females and Weights of spleen were higher in Gentamycin treated males and Decreased thymus weights were found in Gentamycin and Tobramycin treated males and ↑↑ | Decreasing order of nephrotoxicity at histopathological examination ([1]; 28-day treatment, males): Cisplatin, Gentamycin, Tobramycin and Doxorubicin in males | normalized Real Time PCR MMU09507_DB81_seg15 ([2]; female rats, day1): 0.41 and 0.43 and 0.23 | normalized Real Time PCR MUSCYCG1R_DB81_seg19-20 ([2]; female rats, day1): 0.67 and 0.55 and 0.44 | normalized Real Time PCR RATRAB13X_DB81_seg15-17 ([2]; female rats, day1): 0.9 and 0.63 and 0.55 | normalized Real Time PCR RATRAB13X_DB81_seg22 ([2]; female rats, day1): 0.98 and 0.71 and 0.51 | normalized Real Time PCR W33294_DB81_seg23 ([2]; female rats, day1): 1 and 0.51 and 0.94 | normalized Real Time PCR W33294_DB81_seg44 ([2]; female rats, day1): 1.02 and 0.8 and 0.77 | normalized Real Time PCR MUSCYCG1R_DB81_seg19-20 ([2]; female rats, day5): 1.41 | normalized Real Time PCR MMU09507_DB81_seg15 [2, 4]: 0.78 and 0.62 and 1.13 | normalized Real Time PCR MUSCYCG1R_DB81_seg19-20 [2, 4]: 1.23 and 1.42 | normalized Real Time PCR RATRAB13X_DB81_seg15-17 [2, 4]: 1.68 and 1.5 and 1.59 | normalized Real Time PCR RATRAB13X_DB81_seg22 [2, 4]: 2.16 and 2.11 and 1.91 | normalized Real Time PCR W33294_DB81_seg23 [2, 4]: 1.64 and 1.96 and 1.51 | normalized Real Time PCR W33294_DB81_seg44 [2, 4]: 1.64 and 1.72 and 2.13 | normalized Real Time PCR MMU09507_DB81_seg15 ([2]; female rats, day28): 1.38 and 0.96 and 0.7 | normalized Real Time PCR MUSCYCG1R_DB81_seg19-20 ([2]; female rats, day28): 0.56 and 0.74 and 0.42 | normalized Real Time PCR RATRAB13X_DB81_seg15-17 ([2]; female rats, day28): 0.84 and 0.9 and 0.88 | normalized Real Time PCR RATRAB13X_DB81_seg22 ([2]; female rats, day28): 0.68 and 0.56 and 0.57 | normalized Real Time PCR W33294_DB81_seg44 ([2]; female rats, day28): 0.66 and 0.71 | normalized Real Time PCR MMU09507_DB81_seg15 ([2]; male rats, day1): 0.56 and 0.32 and 0.37 | normalized Real Time PCR RATRAB13X_DB81_seg22 ([2]; male rats, day1): 0.8 and 0.99 and 0.6 | normalized Real Time PCR W33294_DB81_seg23 ([2]; male rats, day1): 0.57 and 0.74 and 0.61 | normalized Real Time PCR W33294_DB81_seg44 ([2]; male rats, day1): 0.77 and 0.5 and 0.64 | normalized Real Time PCR MMU09507_DB81_seg15 ([2]; male rats, day5): 0.71 and 0.41 and 0.68 | normalized Real Time PCR MUSCYCG1R_DB81_seg19-20 ([2]; male rats, day5): 1.43 and 1 | normalized Real Time PCR RATRAB13X_DB81_seg15-17 ([2]; male rats, day5): 1.25 and 0.76 and 1.35 | normalized Real Time PCR RATRAB13X_DB81_seg22 ([2]; male rats, day5): 1.25 and 0.77 and 1.16 | normalized Real Time PCR W33294_DB81_seg23 ([2]; male rats, day5): 1.25 and 0.82 and 0.95 | normalized Real Time PCR W33294_DB81_seg44 ([2]; male rats, day5): 1.12 and 0.93 and 0.94 | normalized Real Time PCR MMU09507_DB81_seg15 ([2]; male rats, day28): 0.82 and 0.59 and 0.84 | normalized Real Time PCR MUSCYCG1R_DB81_seg19-20 ([2]; male rats, day28): 0.79 and 0.4 and 0.55 | normalized Real Time PCR RATRAB13X_DB81_seg15-17 ([2]; male rats, day28): 0.77 and 0.76 and 1.22 | normalized Real Time PCR RATRAB13X_DB81_seg22 ([2]; male rats, day28): 0.91 and 0.88 and 0.58 | normalized Real Time PCR W33294_DB81_seg23 ([2]; male rats, day28): 0.57 and 0.8 and 0.67 | AA686189_DB71_seg6 normalized Real Time PCR expression [2, 5]: 1.19 and 0.65 and 1.07 and 0.94 and 1.04 and 0.6 | AA799594_DB71_seg0 normalized Real Time PCR expression [2, 5]: 1.25 and 0.72 and 0.93 and 0.57 and 0.95 and 0.92 | AA964541_DB71_seg0 normalized Real Time PCR expression [2, 5]: 1.35 and 0.74 and 1.29 and 0.9 and 1.19 and 0.44 | AI045075_DB71_seg6 normalized Real Time PCR expression [2, 5]: 1.5 and 0.93 and 0 and 1.07 and 1.03 and 0.78 | AI454051_DB71_seg0 normalized Real Time PCR expression [2, 5]: 0.9 and 0.75 and 0.57 and 0.4 and 0.54 and 0.79 | AI502869_DB71_seg0 normalized Real Time PCR expression [2, 5]: 0.83 and 0.61 and 0.53 and 1.53 and 0.99 and 0.76
